# Measurements: patent US20210212321A1, “STABILIZED FUNGICIDAL COMPOSITION COMPRISING CYCLODEXTRIN” (Bayer CropScience LP, priority 2018, published 2021)
# Key:
# Format in all cases: physicochemical
# [1] = Storage of RAXIL PRO MD for two weeks with or without nitrogen purging; prothioconazole desthio quantified by LC-MS; settings: sample D compared to samples A, B and C
# Experimental: RAXIL® PRO MD is a commercial product containing 1.47% prothioconazole, 0.29% tebuconazole, and 0.59% metalaxyl in an aqueous formulation. Samples of RAXIL® PRO MD were subjected to nitrogen purging by bubbling nitrogen gas through the samples for about 5 minutes. Control samples were not purged with nitrogen. The samples were then divided into the groups outlined in Table 1. Samples were either maintained in the dark or exposed to ambient light. In addition, certain samples were wrapped in foil to minimize contact with ambient oxygen while others were not. All samples were stored at room temperature.
# After two weeks of storage under these conditions, prothioconazole desthio was quantified in each sample using liquid chromatography mass spectrometry (LC-MS) using a SCIEX TRIPLE QUAD™6500 and a standard curve generated with a prothioconazole desthio chemical standard.
# [2] = Storage of Prothioconazole SC for two months with or without nitrogen purging; prothioconazole desthio quantified by LC-MS; settings: sample D compared to samples A and B
# Experimental: All samples were stored in glass containers with exposure to ambient light at room temperature for two months. Certain samples were also wrapped with foil to limit exposure to ambient oxygen. At the conclusion of the storage period, prothioconazole desthio was quantified in each sample using LC-MS.
# This study was conducted with the same group of samples stored for two months in containers made of plastic instead of glass, and similar results were observed.
# [3] = Storage stability of aqueous prothioconazole solutions with or without cyclodextrins (LC-MS); settings: two weeks at 54° C.
# Experimental: Aqueous solutions of prothioconazole (PTZ) at a concentration of about 1% to about 1.5% (w/w) were prepared. These samples were stored for two weeks at 54° C., for eight weeks at 40° C., or for 52 weeks at 20° C. The initial amount of PTZ in each sample was measured together with the final amount of PTZ after storage using LC-MS as outlined in Example 1. From these measurements the percentage of PTZ remaining after storage was calculated and ranged from about 94% to about 97% (see FIG. 1A).
# In a separate experiment, the ability of two different cyclodextrins, 2-hydroxypropyl-β cyclodextrin (HPCD) and methyl-β cyclodextrin (MeCD), to stabilize PTZ was evaluated. Aqueous solutions of PTZ at a concentration of about 1% to about 1.5% (w/w) were mixed with 15% (w/w) HPCD or 15% (w/w) MeCD. A control sample contained no cyclodextrins. The samples were stored for two weeks at 54° C., and the percentage of PTZ remaining after storage was calculated as before using LC-MS.
# [4] = Storage stability of RAXIL PRO MD + penflufen with increasing methyl cyclodextrin (HPLC); settings: RAXIL PRO MD+PFL (1.38% w/w), highest concentration of cyclodextrin (MeCD); two weeks at 54° C.
# Excerpt: A sample containing PTZ without any PFL or cyclodextrin was included as the “Control” in FIGS. 3 and 4.
# [5] = Storage stability of prothioconazole/penflufen mixture with 25 wt % MeCD at various temperatures (HPLC); settings: for % Degradation (PTZ) / % PTZ / % PFL: with 25 wt % MeCD
# Experimental: Aqueous solutions of a mixture of prothioconazole (PTZ) at a concentration of about 1.5% (w/w), and penflufen at a concentration of about 1.65% (w/w), were prepared and physically mixed with MeCD at 25 wt %. These samples were stored for two weeks at 54° C., for eight weeks at 40° C., or for 6 months at 30° C. The initial amount of PTZ or PFL in each sample was measured together with the final amount of PTZ or PLF after storage using HPLC.
smiles,measurement,setting,value
"OC(Cc1ccccc1Cl)(Cn1nc[nH]c1=S)C1(Cl)CC1 (racemic) [Prothioconazole, 2-[2-(1-chlorocyclopropyl)-3-(2-chloro-phenyl)-2-hydroxy-propyl]-2,4-dihydro-3H-1,2,4-triazole-3-thione]","Level of degradation to prothioconazole desthio, samples not purged with nitrogen versus nitrogen-stabilized samples and samples stored in the dark",[1],over ten times higher
same,"Level of degradation to prothioconazole desthio, sample exposed to light and ambient oxygen versus nitrogen-stabilized samples",[2],about ten times higher
same,degradation of PTZ,[3]; mixed with 15% (w/w) HPCD,no observable degradation
same,degradation of PTZ,[3]; mixed with 15% (w/w) MeCD,no observable degradation
same,reduction in degradation of PTZ,[4],86%
same,% Degradation (PTZ),"[5]; Table 3, 30° C. for 6 months",2.01%
same,% PTZ,"[5]; Table 3, 30° C. for 6 months",1.46%
same,% Degradation (PTZ),"[5]; Table 3, 40° C. for 8 weeks",4.03%
same,% PTZ,"[5]; Table 3, 40° C. for 8 weeks",1.43%
same,% Degradation (PTZ),"[5]; Table 3, 54° C. for 2 weeks",2.68%
same,% PTZ,"[5]; Table 3, 54° C. for 2 weeks",1.45%
same,% Degradation (PTZ),"[5]; Table 3, T0",0%
same,% PTZ,"[5]; Table 3, T0",1.49%
same,% Degradation (PTZ),"[5]; Table 4, 30° C. for 6 months",2.01%
same,% PTZ,"[5]; Table 4, 30° C. for 6 months",1.46%
same,% Degradation (PTZ),"[5]; Table 4, 40° C. for 8 weeks",4.70%
same,% PTZ,"[5]; Table 4, 40° C. for 8 weeks",1.42%
same,% Degradation (PTZ),"[5]; Table 4, 54° C. for 2 weeks",2.01%
same,% PTZ,"[5]; Table 4, 54° C. for 2 weeks",1.46%
same,% Degradation (PTZ),"[5]; Table 4, T0",0%
same,% PTZ,"[5]; Table 4, T0",1.49%
"Cc1nn(C)c(F)c1C(=O)Nc1ccccc1C(C)CC(C)C (stereo not shown) [Penflufen, N[2-(1,3-dimethylbutyl)phenyl]-5-fluoro-1,3-dimethyl pyrazole-4-carboxamide]",reduction in degradation of PFL,[4],65%
same,% Degradation (PFL),"[5]; 0 weeks, 1.65 % (w/w)",0%
same,% PFL,"[5]; Table 3, 30° C. for 6 months",1.62%
same,% PFL,"[5]; Table 3, 40° C. for 8 weeks",1.54%
same,% PFL,"[5]; Table 3, 54° C. for 2 weeks",1.6%
same,% PFL,"[5]; Table 3, T0",1.68%
same,% PFL,"[5]; Table 4, 30° C. for 6 months",1.58%
same,% PFL,"[5]; Table 4, 40° C. for 8 weeks",1.60%
same,% PFL,"[5]; Table 4, 54° C. for 2 weeks",1.58%
same,% PFL,"[5]; Table 4, T0",1.64%
